Test results taken from US6537990B1, “Combined preparations comprising morpholine anthracyclines and anticancer agent” (priority 1999, dated 2003).
Where “and” joins values, the source holds several entries; their conditions need not be identical. Equal values may be shown once. Where a name gives a salt, the structure may show the parent alone. Read-outs that look alike come from different tables or passages of the source.

Assays:
[1] = in vivo; cited from earlier work
[2] = tested on: disseminated L1210 murine leukemia; test: Antileukemic activity against disseminated L1210 murine leukemia; type: in vivo, CD2F1 mice
[3] = tested on: tumor cells resistant to L-PAM, cisplatin (cDDP), CTX or Topoisomerase II inhibitors; settings: cited from earlier work
[4] = tested on: tumor cells resistant to anthracyclines and presenting the mdr phenotype; settings: in vitro and in vivo; cited from earlier work

Row | SMILES | Optimal i.v. dose, fold less than that of doxorubicin [1] | ILS % (Increased in Life Span) ([2]; PNU-152243 alone, 0.05 mg/Kg/day iv, days +1, 2) [%] | Tox (Number of toxic deaths/number of mice) ([2]; PNU-152243 alone, 0.05 mg/Kg/day iv, days +1, 2, HCl, 0.05 mg/kg/day) | Tox (Number of toxic deaths/number of mice) ([2]; PNU-152243 alone, 0.05 mg/Kg/day iv, days +1, 2, listed as PNU 152243, HCl, 0.05 mg/kg/day) | Cross-resistance on resistant tumor cells ([3]; tumor cells resistant to L-PAM or cisplatin (cDDP), or to Topoisomerase II inhibitors (at-multidrug resistant)) | Activity on tumor cells resistant to anthracyclines and presenting the mdr phenotype [4] | Cross-resistance on resistant tumor cells ([3]; tumor cells resistant to CTX, L-Pam and cDDP) | ILS % (Increased in Life Span) ([2]; cDDP alone, 5.9 mg/Kg/day iv, day +3) [%] | Tox (Number of toxic deaths/number of mice) ([2]; cDDP alone, 5.9 mg/Kg/day iv, day +3, 5.9 mg/kg/day) | ILS % (Increased in Life Span) ([2]; cDDP alone, 7.7 mg/Kg/day iv, day +3) [%] | Tox (Number of toxic deaths/number of mice) ([2]; cDDP alone, 7.7 mg/Kg/day iv, day +3, 7.7 mg/kg/day)
1 | COc1cccc2c1C(=O)c1c(O)c3c(c(O)c1C2=O)C[C@@](O)(C(=O)CO)C[C@@H]3O[C@H]1C[C@H](N2CCO[C@H](OC)C2)[C@H](O)[C@H](C)O1 [PNU-152243, 3′deamino-3′(2-methoxy-4-morpholinyl)doxorubicin. HCl] | at least 80 fold | 50 | 0/10 | without toxicity | No cross-resistance | active | – | – | – | – | –
2 | CCC1(O)CC(OC2CC(N3CCOCC3)C(O)C(C)O2)c2c(O)c3c(c(O)c2C1O)C(=O)c1cccc(O)c1C3=O (stereo not drawn) [MX2, 3′-deamino-3′(4-morpholinyl)-13-deoxo-10-hydroxy-carminomycin] | – | – | – | – | – | active | No cross-resistance | – | – | – | –
3 | [NH2][Pt]([NH2])([Cl])[Cl] [cDDP, cisplatin] | – | – | – | – | – | – | – | 33 | without toxicity and 0/10 | 33 | without toxicity and 0/10
